Earlier results, collected in patent US11963940B2, “Parenteral esmolol formulation” (AOP ORPHAN PHARMACEUTICALS AG, priority 2012, dated 2024).

Conditions: after the starting dose, e.g. initial infusion

## COC(=O)CCc1ccc(OCC(O)CNC(C)C)cc1.Cl (stereo not shown) [esmolol, 4-[2-Hydroxy-3-[(1-methylethyl)amino]propoxy] benzenepropanoic acid methyl ester hydrochloride]
  time to steady state plasma concentration: ≤ 5 min
